Converted amounts (≈) assume the structure as drawn.
Assays:
[1] = tested on: Mycobacterium tuberculosis TN565; format: cell-based
[2] = tested on: Mycobacterium tuberculosis TN1618; format: cell-based

SMILES	MIC TN565 (RESISTANT) [1] [µg/mL]	MIC TN1618 (RESISTANT) [2] [µg/mL]
C[C@H](NC(=O)N[C@@H](Cc1c[nH]c2ccccc12)C(=O)O)C(=O)N[C@H](C(=O)N/C=C1/C[C@@H](O)[C@H](n2ccc(=O)[nH]c2=O)O1)[C@H](C)N(C)C(=O)[C@@H](N)Cc1cccc(O)c1 [Pacidamycin 4, reference compound]	>30	>30
CC(N)C(=O)N(C)C(C)C(NC(=O)C(Cc1ccc(-c2ccccc2)cc1)NC(=O)NC(Cc1c[nH]c2ccccc12)C(=O)O)C(=O)NCC1CC(O)C(n2ccc(=O)[nH]c2=O)O1 [Compound 155, 1-[5′-[(2S,3S)-N^3-L-Alanyl-N^2-[N-[[(1S)-1-carboxy-2-indol-3-ylethyl)carbamoyl]-L-4-biphenylalanyl]-N^3-methyl-2,3-diaminobutyramidol-3′,5′-dideoxy-α-L-arabinofuranosyl]uracil]	10 (≈ 11.5 µM)	10 (≈ 11.5 µM)
CC(N)C(=O)N(C)C(C)C(NC(=O)C(Cc1ccc(F)cc1)NC(=O)NC(Cc1ccc(O)cc1)C(=O)O)C(=O)NCC1CC(O)C(n2ccc(=O)[nH]c2=O)O1 [Compound 157, 1-[5′-[(2S,3S)-N^3-L-Alanyl-N^2-[N-[[(1S)-1-carboxy-4-hydroxyphenethyl]carbamoyl]-L-4-fluorophenylalanyl]-N^3-methyl-2,3-diaminobutyramido]-3′,5′-dideoxy-α-L-arabinofuranosyl]uracil]	10 (≈ 12.7 µM)	10 (≈ 12.7 µM)
CC(C)C[C@H](NC(=O)N[C@@H](Cc1c[nH]c2ccccc12)C(=O)O)C(=O)N[C@H](C(=O)NC[C@H]1C[C@@H](O)[C@H](n2ccc(=O)[nH]c2=O)O1)[C@H](C)N(C)C(=O)CN [Compound 109]	10 (≈ 13.5 µM)	10 (≈ 13.5 µM)
CSCCC(NC(=O)NC(Cc1ccc(O)cc1)C(=O)O)C(=O)NC(C(=O)NCC1CC(O)C(n2ccc(=O)[nH]c2=O)O1)C(C)N(C)C(=O)C(C)N [Compound 115, 1-[5′[(2S,3S)-N^3-L-Alanyl-N^2-[N-[[(1S)-1-carboxy-4-hydroxyphenethyl)-carbamoyl]-L-methionyl]-N^3-methyl-2,3-diaminobutyramido]-3′,5′-dideoxy-α-L-arabinofuranosyl]uracil]	>30	30 (≈ 40 µM)
CC(N)C(=O)N(C)C(C)C(NC(=O)C(Cc1ccccc1)NC(=O)NC(Cc1ccc2ccccc2c1)C(=O)O)C(=O)NCC1CC(O)C(n2ccc(=O)[nH]c2=O)O1 [Compound 133, 1-[5′-[(2S,3S)-N^3-L-Alanyl-N^2-[N-[[(1S)-1-carboxy-2-naphthalenethyl]carbamoyl]-L-phenylalanyl]-N^3-methyl-2,3-diaminobutyramido]-3′,5′-dideoxy-α-L-arabinofuranosyl]uracil]	30 (≈ 37.5 µM)	10 (≈ 12.5 µM)
CC(C)CC(N)C(=O)N(C)C(C)C(NC(=O)C(Cc1ccccc1)NC(=O)NC(Cc1c[nH]c2ccccc12)C(=O)O)C(=O)NCC1CC(O)C(n2ccc(=O)[nH]c2=O)O1 [Compound 159, 1-[5′-[(2S,3S)-N^2-[N-[[(1S)-1-Carboxy-2-indol-3-ylethyl]carbamoyl]-L-phenylalanyl]l-N^3-L-leucyl-N^3-methyl-2,3-diaminobutyramido]-3′,5′-dideoxy-α-L-arabinofuranosyl]uracil]	30 (≈ 36.1 µM)	10 (≈ 12 µM)
CC(N)C(=O)N(C)C(C)C(NC(=O)C(Cc1ccc(C(F)(F)F)cc1)NC(=O)NC(Cc1c[nH]c2ccccc12)C(=O)O)C(=O)NCC1CC(O)C(n2ccc(=O)[nH]c2=O)O1 [Compound 146, 1-[5′-[(2S,3S)-N^3-L-Alanyl-N^2-[N-[[(1S)-1-carboxy-2-indol-3-ylethyl]carbamoyl]-L-4-(trifluoromethyl)phenylalanyl]-N^3-methyl-2,3-diaminobutyramido]-3′,5′-dideoxy-α-L-arabinofuranosyl]uracil]	10 (≈ 11.7 µM)	10 (≈ 11.7 µM)
CC(N)C(=O)N(C)C(C)C(NC(=O)C(Cc1ccc(F)cc1)NC(=O)NC(Cc1c[nH]c2ccccc12)C(=O)O)C(=O)NCC1CC(O)C(n2ccc(=O)[nH]c2=O)O1 [Compound 158, 1-[5′-[(2S,3S)-N^3-L-Alanyl-N^2-[N-[[(1S)-1-carboxy-2-indol-3-ylethyl]carbamoyl]-L-4-fluorophenylalanyl]-N^3-methyl-2,3-diaminobutyramidol-3′,5′-dideoxy-α-L-arabinofuranosyl]uracil]	10 (≈ 12.4 µM)	10 (≈ 12.4 µM)
CC(N)C(=O)N(C)C(C)C(NC(=O)C(Cc1ccccc1)NC(=O)NC(Cc1c[nH]c2ccccc12)C(=O)O)C(=O)NCC1CC(O)C(n2ccc(=O)[nH]c2=O)O1 [Compound 164, 1-[5′-[(2S,3S)-N^3-L-Alanyl-N^2-[N-[[(1S)-1-carboxy-2-indol-3-ylethyl]carbamoyl]-L-phenylalanyl]-N^3-methyl-2,3-diaminobutyramido]-3′,5′-dideoxy-α-L-arabinofuranosyl]uracil]	10 (≈ 12.7 µM)	10 (≈ 12.7 µM)
